# Measurements from patent US20080096943A1, “Organic Compunds” (priority 2004, published 2008).
# Molecular target: T1, human CCR-3 (Homo sapiens, UniProt P51677)
# T1 construct: expressed in transfected cells; membranes used
# T1 sequence (P51677 1-355): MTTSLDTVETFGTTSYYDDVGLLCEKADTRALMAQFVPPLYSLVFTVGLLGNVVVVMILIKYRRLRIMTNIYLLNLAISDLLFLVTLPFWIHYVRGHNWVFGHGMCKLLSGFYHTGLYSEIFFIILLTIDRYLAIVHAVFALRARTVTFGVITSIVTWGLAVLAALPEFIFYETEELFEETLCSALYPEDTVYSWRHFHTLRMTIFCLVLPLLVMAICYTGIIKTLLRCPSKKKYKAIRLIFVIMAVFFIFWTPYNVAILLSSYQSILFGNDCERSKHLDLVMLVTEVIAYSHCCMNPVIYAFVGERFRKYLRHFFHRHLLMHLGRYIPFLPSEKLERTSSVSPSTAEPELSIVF
# Assay: [125I]-human eotaxin binding to CCR-3, SPA assay
# Settings: inhibition of [125I]-human eotaxin binding; membranes of RBL-2H3 cells stably expressing CCR3; 4 hours at room temperature
# Excerpt: Recombinant cells expressing human CCR-3 are captured by wheatgerm agglutinin (WGA) polyvinyltoluidene (PVT) SPA beads (available from Amersham), through a specific interaction between the WGA and carbohydrate residues of glycoproteins on the surface of the cells. [^125I]-human eotaxin (available from Amersham) binds specifically to CCR-3 receptors bringing the [^125I]-human eotaxin in close proximity to the SPA beads. Emitted â-particles from the [^125I]-human eotaxin excite, by its proximity, the fluorophore in the beads and produce light.
# Preparation of Assay Buffer: 5.96 g HEPES and 7.0 g sodium chloride are dissolved in distilled water and 1 M aqueous CaCl2 (1 ml) and 1M aqueous MgCl2 (5 ml) are added. The pH is adjusted to 7.6 with NaOH and the solution made to a final volume of 1 l using distilled water. 5 g bovine serum albumin and 0.1 g sodium azide are then dissolved in the solution and the resulting buffer stored at 4° C. […]
# Preparation of membranes: Confluent rat basophil leukaemia (RBL-2H3) cells stably expressing CCR3 are removed from tissue culture flasks using enzyme-free cell dissociation buffer and resuspended in phosphate-buffered saline. […] The resulting scintillations are counted using a Canberra Packard TOPCOUNT™ scintillator counter, each well being counted for 1 minute. […]
row,IC50,SMILES
1,49 nM,"CN(CCCCNC(=O)Nc1ccc(F)c(F)c1)Cc1ccc(F)cc1 [Example 2, 1-(3,4-difluorophenyl)-3-{4-[(4-fluorobenzyl)methylamino]-butyl}-urea]"
2,1540 nM,"Cc1noc(C)c1NC(=O)NCCCCN(C)Cc1ccc(F)cc1 [Example 1, 1-(3,5-Dimethyl-isoxazole-4-yl)-3-[4-[(4-fluorobenzyl)methylamino]-butyl]-urea]"
